The values below come from US8993585B2, “Cyclic amine substituted pyrimidinediamines as PKC inhibitors” (Rigel Pharmaceuticals, Inc., priority 2007, dated 2015).

Assay [1] concerns the target T1, PKC theta (Homo sapiens, UniProt Q04759).
T1 construct: purchased Upstate Biotechnologies, Temecula, CA 14-444
In words: PKC assay, fluorescence polarization (Example 2), PKC theta. Format: biochemical. Conditions: 5 μM ATP. The protocol: (§1) The inhibition of PKC activity was measured by monitoring the production of phosphorylated peptide by fluorescence polarization at different concentrations of the inhibitor. Reactions were carried out in 96-well plate format with a total volume of 20 μL containing 20 mM HEPES, pH 7.4, 5 mM MgCl2, 0.2 mM CaCl2, 1 mM DTT, 0.02% Brij-35, 0.1 mg/mL phosphatidylserine, 0.02 mg/mL dioleoyl-sn-glycerol and 5 μM each of ATP and the peptide substrate. Compounds were first diluted serially in DMSO and then transferred to a solution containing the above concentrations of HEPES, MgCl2, CaCl2, DTT, and Brij-35 to yield 5× compound solutions in 2% DMSO, which was then added to the reaction solution. Reactions were initiated by the addition of PKC at a typical concentration as described in Table VI, and then allowed to incubate at room temperature for 20 min. At the end of this time, a combination of quench (EDTA) and detection (peptide tracer and antibody) reagents was added using the protocol of Invitrogen P2748.

For assay [2], the target named is T2, PKC epsilon (Homo sapiens, UniProt Q02156).
T2 construct: purchased Upstate Biotechnologies, Temecula, CA 14-518
T2 sequence (Q02156 1-737): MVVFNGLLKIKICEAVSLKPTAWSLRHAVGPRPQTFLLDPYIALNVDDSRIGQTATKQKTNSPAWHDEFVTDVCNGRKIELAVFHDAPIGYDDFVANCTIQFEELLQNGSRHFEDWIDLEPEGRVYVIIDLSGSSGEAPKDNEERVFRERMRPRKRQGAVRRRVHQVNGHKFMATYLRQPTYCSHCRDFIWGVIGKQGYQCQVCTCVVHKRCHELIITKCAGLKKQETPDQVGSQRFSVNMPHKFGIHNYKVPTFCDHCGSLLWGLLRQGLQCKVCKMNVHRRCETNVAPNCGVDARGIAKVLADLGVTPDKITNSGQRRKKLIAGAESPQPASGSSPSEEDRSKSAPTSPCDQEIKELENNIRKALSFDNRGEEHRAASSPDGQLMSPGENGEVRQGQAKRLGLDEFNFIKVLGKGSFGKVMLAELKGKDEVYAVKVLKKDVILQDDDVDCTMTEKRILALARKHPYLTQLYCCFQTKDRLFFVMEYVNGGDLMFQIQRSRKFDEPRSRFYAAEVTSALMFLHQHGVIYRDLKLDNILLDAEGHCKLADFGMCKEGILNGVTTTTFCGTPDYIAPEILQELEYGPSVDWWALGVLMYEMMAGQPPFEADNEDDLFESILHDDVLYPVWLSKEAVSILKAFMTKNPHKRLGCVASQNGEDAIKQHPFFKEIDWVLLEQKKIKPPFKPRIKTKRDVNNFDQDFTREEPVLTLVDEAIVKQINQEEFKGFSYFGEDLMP
Kind of assay: PKC assay, fluorescence polarization (Example 2), PKC epsilon. Type of assay: biochemical. Particulars: 5 μM ATP. As for the experimental part: as §1

Assay [3] concerns Human primary T cells. In words: IL-2 ELISA, Human Primary T Cell, Anti-CD3+CD28+ (Example 3). Format: cell-based. Conditions: anti-CD3+CD28 stimulation. Summed up:
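IL-2 was read by ELISA after stimulation on wells pre-coated with 1 ug/ml αCD3 and 5 μg/ml αCD28. Before this, 100,000 human primary T cells per well spent 1 h at 37 °C with test compound in Yssel's medium. The counter-screen replaced antibody stimulation with PMA (0.5 ng/ml final) and ionomycin (0.1 uM final).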

T1 sequence (Q04759 whole entry): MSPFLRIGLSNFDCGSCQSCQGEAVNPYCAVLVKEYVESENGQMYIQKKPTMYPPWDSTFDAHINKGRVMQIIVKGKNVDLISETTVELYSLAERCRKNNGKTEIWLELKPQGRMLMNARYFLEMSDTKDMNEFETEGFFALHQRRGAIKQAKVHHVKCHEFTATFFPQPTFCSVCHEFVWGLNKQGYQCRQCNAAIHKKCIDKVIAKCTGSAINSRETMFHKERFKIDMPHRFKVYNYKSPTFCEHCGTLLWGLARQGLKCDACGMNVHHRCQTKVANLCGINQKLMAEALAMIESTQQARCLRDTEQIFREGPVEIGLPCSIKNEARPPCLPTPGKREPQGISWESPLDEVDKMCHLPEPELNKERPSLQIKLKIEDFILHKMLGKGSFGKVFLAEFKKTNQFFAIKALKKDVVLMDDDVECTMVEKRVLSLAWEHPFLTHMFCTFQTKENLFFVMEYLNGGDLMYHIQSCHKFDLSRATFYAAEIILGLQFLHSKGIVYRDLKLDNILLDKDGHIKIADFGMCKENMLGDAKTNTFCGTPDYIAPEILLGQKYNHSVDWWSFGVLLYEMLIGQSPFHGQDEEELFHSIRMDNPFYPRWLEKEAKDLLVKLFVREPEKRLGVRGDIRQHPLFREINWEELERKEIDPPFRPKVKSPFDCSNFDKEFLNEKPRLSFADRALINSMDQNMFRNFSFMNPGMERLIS

The term IC50 denotes the concentration that inhibits the measured activity by half. In the case of `CN1C(C)(C)CC(Nc2nc(Nc3ccc(F)c(C#N)c3)ncc2F)CC1(C)C` [Compound I-140], the half-maximal inhibitory concentration (IC50) in assay [1] turned out to be 5.48 nM; in assay [2], 158 nM; in assay [3] (Homo sapiens, T-cell, 24 h), 229 nM.

Turning to `CN1CCN(c2ncc(Nc3ncc(F)c(NC4CC(C)(C)N(C)C(C)(C)C4)n3)cc2C(F)(F)F)CC1` [Compound I-273], the figures for the half-maximal inhibitory concentration (IC50) in assay [1], in assay [2] and in assay [3] (24 hours) were 3.34 nM, 4.87 nM and 217 nM, respectively.

For the compound `COc1cc(Nc2ncc(F)c(NC3CC(C)(C)N(C)C(C)(C)C3)n2)cc(-n2cnnn2)c1` [Compound I-342], the IC50 turned out to be 0.95 nM in assay [1]; 1.57 nM in assay [2]; 31.8 nM in assay [3] (Homo sapiens, T-cell, 24 h).

Regarding `CN1C(C)(C)CC(Nc2nc(Nc3ccc(-c4cccnc4)c(F)c3)ncc2F)CC1(C)C` [Compound I-118], the IC50 in assay [1] stood at 18.2 nM; in assay [2], 10.3 nM; in assay [3] (Homo sapiens, T-cell, 24 h), 237 nM.

Take `CSc1nnnn1-c1cccc(Nc2ncc(C#N)c(NC3CC(C)(C)NC(C)(C)C3)n2)c1` [Compound I-465]: the half-inhibitory concentration (IC50) in assay [1] was 3.4 nM; in assay [2] it was 115 nM; in assay [3] (Homo sapiens, T-cell, 24 h), 280 nM.

Take `COc1ccc(Nc2ncc(C#N)c(NC3CC(C)(C)N(C)C(C)(C)C3)n2)cc1Cl` [Compound I-93]: the half-inhibitory concentration (IC50) was 2.59 nM in assay [1]; 208 nM in assay [2]; 344 nM in assay [3] (Homo sapiens, T-cell, 24 h).

For `Cc1cc(Nc2ncc(F)c(NC3CC(C)(C)N(C)C(C)(C)C3)n2)ccc1-c1ccoc1` [Compound I-122], the IC50 was 60.7 nM in assay [1]; 18.7 nM in assay [2]; 295 nM in assay [3] (Homo sapiens, T-cell, 24 h).

In the case of `CN1C(C)(C)CC(Nc2nc(Nc3cccc(-c4ccoc4)c3)ncc2F)CC1(C)C` [Compound I-105], the 50% inhibitory concentration (IC50) in assay [1] turned out to be 26 nM; in assay [2], 154 nM; in assay [3] (Homo sapiens, T-cell, 24 h) it was 221 nM.

With `Cc1ccc(Nc2ncc(C#N)c(NC3CC(C)(C)N(C)C(C)(C)C3)n2)cc1-n1cnnn1` [Compound I-459], the IC50 was 0.3 nM in assay [1]; 22 nM in assay [2]; 50 nM in assay [3] (Homo sapiens, T-cell, 24 h).

Consider `CN1C(C)(C)CC(Nc2nc(Nc3ccc(F)c(C#N)c3)ncc2Cl)CC1(C)C` [Compound I-166], for which the IC50 in assay [1] came out at 4.26 nM; in assay [2], 198 nM; in assay [3] (Homo sapiens, T-cell, 24 h) it was 281 nM.

As for `CN1C(C)(C)CC(Nc2nc(Nc3ccc(C(F)(F)F)c(N4CCN(S(C)(=O)=O)CC4)c3)ncc2F)CC1(C)C` [Compound I-216], the IC50 worked out at 5.99 nM in assay [1]; 29 nM in assay [2]; 174 nM in assay [3] (Homo sapiens, T-cell, 24 h).

As for `CN1C(=O)C(F)(F)Oc2cc(Nc3ncc(F)c(NC4CC(C)(C)N(C)C(C)(C)C4)n3)ccc21` [II-8], the 50% inhibitory concentration (IC50) in assay [1] came out at 2.43 nM; in assay [2], 57.9 nM; in assay [3] (Homo sapiens, T-cell, 24 h), 90 nM.

For the compound `CN1C(C)(C)CC(Nc2nc(Nc3cc(OCC(F)(F)F)cc(OCC(F)(F)F)c3)ncc2F)CC1(C)C` [Compound I-378], the IC50 in assay [1] is 3.5 nM; in assay [2] it was 42.9 nM; in assay [3] (Homo sapiens, T-cell, 24 h), 310 nM.

On to `CCN1C(=O)C(C)(C)Oc2cc(Nc3ncc(Br)c(NC4CC(C)(C)N(C)C(C)(C)C4)n3)ccc21` [II-128], for which the IC50 in assay [1] is 0.5 nM; in assay [2], 202 nM; in assay [3] (Homo sapiens, T-cell, 24 h), 80 nM.

Take `CN1C(C)(C)CC(Nc2nc(Nc3ccc(N4CCSCC4)c(C#N)c3)ncc2F)CC1(C)C` [Compound I-199]: the IC50 was determined as 2.88 nM in assay [1]; 9.58 nM in assay [2]; 135 nM in assay [3] (Homo sapiens, T-cell, 24 h).

As for `COc1ccc(Nc2ncc(F)c(NC3CC(C)(C)NC(C)(C)C3)n2)cc1OC(F)F` [Compound I-444], the concentration for half-maximal inhibition (IC50) in assay [1] is 1.1 nM; in assay [2], 157 nM; in assay [3] (Homo sapiens, T-cell, 24 h) it was 180 nM.

`COc1cc(Nc2ncc(Br)c(NC3CC(C)(C)N(C)C(C)(C)C3)n2)cc(OC)c1` [Compound I-422]: the half-inhibitory concentration (IC50) in assay [1] was determined as 10.2 nM; in assay [2], 165 nM; in assay [3] (Homo sapiens, T-cell, 24 h), 250 nM.

Take `CN1C(C)(C)CC(Nc2nc(Nc3ccc(-n4cccc4)c(C#N)c3)ncc2Cl)CC1(C)C` [Compound I-167]: the concentration for half-maximal inhibition (IC50) in assay [1] turned out to be 3.87 nM; in assay [2], 197 nM; in assay [3] (Homo sapiens, T-cell, 24 h) it was 227 nM.

`CN1C(C)(C)CC(Nc2nc(Nc3ccc4ncccc4c3)ncc2F)CC1(C)C` [II-1]: the IC50 is 9.66 nM in assay [1]; 144 nM in assay [2]; 612 nM in assay [3] (Homo sapiens, T-cell, 24 h).

On to `CC1(C)CC(Nc2nc(Nc3cccc(-c4nn[nH]n4)c3)ncc2F)CC(C)(C)N1` [Compound I-471], for which the IC50 in assay [2] came to 982 nM.

Take `CCOc1ccc(Nc2ncc(C#N)c(NC3CC(C)(C)NC(C)(C)C3)n2)cc1-n1nnnc1CC` [Compound I-469]: the IC50 was 1.5 nM in assay [1]; 129 nM in assay [2]; 120 nM in assay [3] (Homo sapiens, T-cell, 24 h).

With `CN1CCN(c2ccc(Nc3ncc(C(F)(F)F)c(NC4CC(C)(C)N(C)C(C)(C)C4)n3)cc2C#N)CC1` [Compound I-178], the IC50 in assay [1] came to 0.81 nM; in assay [2], 160 nM; in assay [3] (Homo sapiens, T-cell, 24 h) it was 243 nM.

As for `Cc1ccc(Nc2ncc(F)c(NC3CC(C)(C)N(C)C(C)(C)C3)n2)cc1-c1cccnc1` [Compound I-197], the IC50 in assay [1] was 4.38 nM; in assay [2], 60.3 nM; in assay [3] (24 hours), 237 nM.

Take `CN1CCN(c2ccc(Nc3ncc(F)c(NC4CC(C)(C)N(C)C(C)(C)C4)n3)cc2C#N)CC1` [Compound I-132]: the concentration for half-maximal inhibition (IC50) in assay [1] was 1.82 nM; in assay [2], 12.5 nM; in assay [3] (Homo sapiens, T-cell, 24 h), 64.9 nM.

Regarding `CN1C(C)(C)CC(Nc2nc(Nc3cccc(-c4nn[nH]n4)c3)ncc2F)CC1(C)C` [Compound I-470], the IC50 amounted to 698 nM in assay [1] and 941 nM in assay [2].

For `CN1C(C)(C)CC(Nc2nc(Nc3ccc(N4CCN(S(C)(=O)=O)CC4)c(C#N)c3)ncc2F)CC1(C)C` [Compound I-164], the half-maximal inhibitory concentration (IC50) in assay [1] came out at 2.16 nM; in assay [3] (Homo sapiens, T-cell, 24 h) it was 223 nM.

For `CN1CCN(c2cccc(Nc3ncc(F)c(NC4CC(C)(C)N(C)C(C)(C)C4)n3)c2)CC1` [Compound I-2], the IC50 in assay [1] came out at 407 nM; in assay [3] (Homo sapiens, T-cell, 24 h), 1570 nM.

As for `CN1C(C)(C)CC(Nc2nc(Nc3ccc(-c4cccnc4)cc3)ncc2F)CC1(C)C` [Compound I-124], the IC50 in assay [1] was 55.7 nM; in assay [3] (Homo sapiens, T-cell, 24 h) it was 540 nM.

Take `CN1CCN(c2ccc(Nc3ncc(F)c(NC4CC(C)(C)N(C)C(C)(C)C4)n3)cc2OC(F)F)CC1` [Compound I-236]: the IC50 is 2.41 nM in assay [1] and 121 nM in assay [3] (24 hours).

Consider `CN1C(=O)COc2cc(Nc3ncc(F)c(NC4CC(C)(C)N(C)C(C)(C)C4)n3)ccc21` [II-6], for which the IC50 in assay [1] was determined as 6.06 nM; in assay [3] (Homo sapiens, T-cell, 24 h) it was 244 nM.

Regarding `CN1C(C)(C)CC(Nc2nc(Nc3cccc(-c4cc5ccccc5s4)c3)ncc2F)CC1(C)C` [Compound I-106], the IC50 in assay [1] stood at 239 nM; in assay [3] (Homo sapiens, T-cell, 24 h), 527 nM.

In the case of `CN1C(C)(C)CC(Nc2nc(Nc3ccc(-c4ccncc4)c(F)c3)ncc2F)CC1(C)C` [Compound I-115], the concentration for half-maximal inhibition (IC50) in assay [1] is 21.9 nM; in assay [3] (Homo sapiens, T-cell, 24 h), 287 nM.

Consider `CN1C(C)(C)CC(Nc2nc(Nc3cccc(C#N)c3)ncc2F)CC1(C)C` [Compound I-26], for which the IC50 in assay [1] was 3 nM; in assay [3] (Homo sapiens, T-cell, 24 h), 59 nM.

Consider `CN1C(C)(C)CC(Nc2nc(Nc3ccc(N4CCC(F)(F)CC4)c(C(F)(F)F)c3)ncc2F)CC1(C)C` [Compound I-245], for which the IC50 in assay [1] came to 329 nM; in assay [3] (Homo sapiens, T-cell, 24 h), 539 nM.

`CN1CCN(c2ccc(Nc3ncc(C(F)(F)F)c(NC4CC(C)(C)N(C)C(C)(C)C4)n3)cc2Cl)CC1` [Compound I-34]: the IC50 in assay [1] turned out to be 4 nM; in assay [3] (Homo sapiens, T-cell, 24 h), 123 nM.
